What was measured:
RNase T1 = RNase T1 (Aspergillus oryzae (strain ATCC 42149 / RIB 40) (Yellow koji mold), UniProt P00651); assay: T1 RNase assay with mini-XBP-1 mRNA stem-loop substrate; assay type: biochemical; details: 2.5 μM test compound
Experimental: T1 RNase was assayed as follows. Five μl of a reaction mixture comprising 1× reaction buffer (5× reaction buffer is 100 mM Hepes pH 7.5, 250 mM KOAc, 2.5 mM MgCl2), 3 mM DTT, and 0.4% polyethylene glycol water were added to each well of 384 well plates. Twenty-five nanoliters of a 1 mM test compound solution were added to test wells. Three μl of a 1/48,000 dilution of an approximately 200,000 U/ml RNase T1 (Worthington) preparation were added to each test well and to positive control wells (final concentration 49.5 pg/well). Negative control wells contained only reaction mixture and test compound.
After spinning the plates at 1200 rpm for 30 seconds, 3 μl of the mini-XBP-1 mRNA stem-loop substrate described in Example 1 were added to each well of a control plate. The plates were again spun at 1200 rpm for 30 seconds. Final concentrations for the assay were: 63 nM substrate, 49.5 pg RNase T1, and 2.5 μM test compound.
The plates were covered with lids and incubated for one hour at 30° C. The plates were then transferred to an ACQUEST™ microplate reader. Data was analyzed using data analysis software. The percent activity of RNase T1 was calculated.

RNase A = RNase A (Bos taurus (Bovine), UniProt P61823); assay: RNase A assay with mini-XBP-1 mRNA stem-loop substrate; assay type: biochemical; details: 2.5 μM test compound
Sequence of RNase A (P61823 27-150): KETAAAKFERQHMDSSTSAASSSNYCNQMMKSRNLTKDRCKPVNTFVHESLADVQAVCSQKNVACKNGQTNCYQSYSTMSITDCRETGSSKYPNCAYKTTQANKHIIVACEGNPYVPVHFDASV
Experimental: RNase A was assayed as described for RNase T1. Final concentrations for the assay were: 63 nM substrate, 0.4 pg RNase A (Qiagen; 100 mg/ml or 7000 U/ml), and 2.5 μM test compound.

[1] = system: phosphorylated IRE-1α and XBP1-splicing in RPMI8226 cells; assay: Western blot and RT-PCR of RPMI8226 cells after 24 hour treatment; assay type: cell-based, human
From the text: FIG. 6. […] The numbers indicate the concentration of bortezomib in nM.

human IRE-1α = human IRE-1α (Homo sapiens (Human), UniProt O75460); assay: IRE-1α assay: cleavage of mini-XBP-1 mRNA stem-loop substrate by GST-IRE-1α in vitro; assay type: biochemical; details: values in text
Sequence of human IRE-1α (O75460 19-977): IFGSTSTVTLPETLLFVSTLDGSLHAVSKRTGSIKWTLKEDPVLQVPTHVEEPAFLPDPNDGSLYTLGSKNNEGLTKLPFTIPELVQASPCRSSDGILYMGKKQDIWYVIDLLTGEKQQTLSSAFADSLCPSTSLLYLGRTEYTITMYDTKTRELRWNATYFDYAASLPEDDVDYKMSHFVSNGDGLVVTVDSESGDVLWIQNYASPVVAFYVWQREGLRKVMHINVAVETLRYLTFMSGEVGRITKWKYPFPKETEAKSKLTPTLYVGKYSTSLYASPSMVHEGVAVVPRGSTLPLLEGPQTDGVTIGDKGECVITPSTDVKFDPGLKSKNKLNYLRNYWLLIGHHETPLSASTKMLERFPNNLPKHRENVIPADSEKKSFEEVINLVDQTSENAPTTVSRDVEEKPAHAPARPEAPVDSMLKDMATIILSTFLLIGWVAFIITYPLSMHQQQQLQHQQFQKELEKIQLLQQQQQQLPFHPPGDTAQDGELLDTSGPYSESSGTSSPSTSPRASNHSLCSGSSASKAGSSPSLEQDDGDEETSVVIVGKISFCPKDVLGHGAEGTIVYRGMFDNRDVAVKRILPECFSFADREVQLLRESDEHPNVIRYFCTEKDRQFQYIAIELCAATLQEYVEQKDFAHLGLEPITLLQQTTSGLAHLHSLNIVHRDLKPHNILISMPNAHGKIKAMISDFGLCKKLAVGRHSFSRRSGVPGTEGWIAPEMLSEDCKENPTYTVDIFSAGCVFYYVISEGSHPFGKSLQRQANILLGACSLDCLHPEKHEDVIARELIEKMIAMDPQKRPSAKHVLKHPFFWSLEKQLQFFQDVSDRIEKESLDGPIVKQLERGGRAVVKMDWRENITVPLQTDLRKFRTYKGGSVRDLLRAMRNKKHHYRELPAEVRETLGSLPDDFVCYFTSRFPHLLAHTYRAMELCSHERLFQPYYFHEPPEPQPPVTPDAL
Experimental: A fusion protein comprising glutathione S transferase (GST) and human IRE-1α (GST-IRE-1α) was obtained from a 500 ml baculovirus-infected insect cell culture and used to measure IRE-1α activity in vitro.
Five μl of a reaction mixture comprising 1× reaction buffer (5× reaction buffer is 100 mM Hepes pH 7.5, 250 mM KOAc, 2.5 mM MgCl2), 3 mM DTT, and 0.4% polyethylene glycol water were added to each well of 384 well plates. Twenty-five nanoliters of a 1 mM test compound solution were added to test wells. […] Negative control wells contained only reaction mixture and test compound.
The plates were again spun at 1200 rpm for 30 seconds.
The plates were covered with lids and incubated for one hour at 30° C. The plates were then transferred to an ACQUEST™ microplate reader. Data was analyzed using data analysis software, and the percent activity of IRE-1α was calculated.

primary murine B cells = assay: IgM secretion after LPS stimulation of primary B cells (ELISA); assay type: cell-based, mouse; details: added at beginning of stimulation and again at 24 hours, 20 μg/ml LPS, 48 hr
Experimental: FIG. 9. Inhibition of IgM secretion after LPS stimulation of primary murine B cells with selected IRE-1α inhibitors. […] However, compounds had little effect when at added after 40 hours of stimulation; only slight inhibition at the highest dose. Methods were performed as previously described by Iwakoshi et al., Nature 4, 321-29, 2003 for B cell stimulation, plasma cell differentiation and IgM secretion. Primary B cells were Isolated from BALB/c splenocytes using mouse CD43 Microbeads (Miltenyi cat#130-049-801) with 1×10^6 cells per treatment. Purified B cells were stimulated in B Cell Media at a final density of 1×10^6/ml/well in 24-well plates with 20 μg/ml LPS (Sigma cat#L4391). IRE-1α inhibitor compound 17-1 was added at various concentrations (50 μM, 10 μM, 2 μM, 0.4 μM and 0.08 μM) at specified time points (t=0, t=24 hr, t=40 hr, etc.) Cells were incubated for 48 hr at 37° C. At end of the incubation, cells were spun in a plate at 1500 rpm/3 min. Supernatants were collected for quantitation for IgM secretion using a mouse IgM ELISA Kit (Bethyl Labs cat#E90-101). B Cell medium included RPMI+10% FBS supplemented with NEAA, HEPES, NaPyr, PSQ, and β-mercaptoethanol.

[2] = system: RPMI-8226 multiple myeloma cells; assay: Proliferation of multiple myeloma cells (CellTiter-Glo); assay type: cell-based, human; details: 24 hours, 100 μM to 0 μM
Experimental: FIG. 5. Graph showing inhibition of proliferation of multiple myeloma cells by IRE-1α inhibitor 11-28 (Example 11). RPMI-8226 multiple myeloma cells were seeded at 20,000 cells per well in RPMI culture medium containing 1% FBS and the required antibiotics. The plate was incubated overnight at 37° C., 95% air, 5% CO2. The following day, compound 11-28 or medium alone was added to wells, resulting in a final volume of 100 μl per well. The compound concentration ranged from 100 μM to 0 μM, with compounds diluted by a factor of 4. After addition of compound, the plate was incubated at 37° C., 95% air, 5% CO2 for 24 hours. Cell proliferation was measured using the CellTiter-Glo assay (Promega), following the manufacturer's instructions.
Proliferation assays using myeloma cell lines (U266, RPMI8226 and MM.1s) are used to determine ED50. Compounds are used as single agents and in combination with other chemotherapeutic drugs.

Sequence of RNase T1 (P00651 27-130): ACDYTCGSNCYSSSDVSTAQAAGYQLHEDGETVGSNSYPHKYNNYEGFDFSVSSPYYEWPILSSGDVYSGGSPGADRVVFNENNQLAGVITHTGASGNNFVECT

Compound | selectivity for IRE-1 over T1 RNase (RNase T1) | selectivity for IRE-1 over RNase A (RNase A) | further results
COc1ccc(Br)c(C=O)c1O [6-bromo o-vanillin] | selective for IRE-1 | selective for IRE-1 | 
COc1cccc(C=O)c1O [o-vanillin, 2-hydroxy-3-methoxybenzaldehyde] | selective for IRE-1 | selective for IRE-1 | 
CC(C)C[C@H](NC(=O)[C@H](Cc1ccccc1)NC(=O)c1cnccn1)B(O)O [bortezomib, [(1R)-3-methyl-1-[[(2S)-1-oxo-3-phenyl-2-[(pyrazinylcarbonyl)amino]propyl]amino]butyl]boronic acid] |  |  | levels of phosphorylated IRE-1α and XBP1-splicing [1]: increases the levels of phosphorylated IRE-1α and XBP1-splicing
CCOc1cccc(C=O)c1O [3-ethoxy o-vanillin, 2-hydroxy-3-ethoxybenzaldehyde] | selective for IRE-1 | selective for IRE-1 | IC50 (human IRE-1α): 1 µM
CN(C)C(=O)c1ccc(-c2ccc3c(C=O)c(O)ccc3c2)cc1 [17-1, 4-(5-formyl-6-hydroxynaphthalen-2-yl)-N,N-dimethylbenzamide] |  |  | IgM secretion (primary murine B cells): blocked IgM secretion at all doses tested down to 100 nM
COc1cc(-c2cccs2)cc(C=O)c1O [11-28] |  |  | inhibition of proliferation [2]: inhibits the proliferation
